According to PMC11149339, “Necessity for higher teicoplanin doses in older adults: a multicenter prospective observational study in China” (BMC Geriatrics, 2024):
Where two headings read alike, the source gives them in different places.

Tests used:
[1] = Thrombocytopenia during teicoplanin treatment; format: in vivo, human
Source text: Patients with platelet counts < 100 × 10^9/L at baseline were excluded. Thrombocytopenia was defined as a decrease in the platelet count of > 30% from baseline.

[2] = Nephrotoxicity (acute kidney injury) during teicoplanin treatment; format: in vivo, human
Source text: Patients with renal impairment at baseline were excluded. Nephrotoxicity was defined as acute renal impairment indicated by a serum creatinine increase of > 50% from baseline.

[3] = in vivo, cited from earlier work
Source text: There are few studies on the optimal dose regimen and target concentration of teicoplanin in older adults.

[4] = Therapeutic drug monitoring of teicoplanin trough concentration (Cmin) during treatment, LC-MS/MS; format: in vivo, human; settings: for patients with TDM 10–20 mg/L At 8-14d, N (%) / patients with TDM < 10 mg/L At 8-14d, N (%) / patients with TDM > 20 mg/L At 8-14d, N (%) / TDM At 8-14d (teicoplanin trough concentration): 8–14 days after first dose; for TDM At 8-14d (teicoplanin trough concentration) / TDM At 3d (teicoplanin trough concentration): median [IQR], LC-MS/MS; for patients with TDM 10–20 mg/L At 3d, N (%) / patients with TDM < 10 mg/L At 3d, N (%) / patients with TDM > 20 mg/L At 3d, N (%) / TDM At 3d (teicoplanin trough concentration): 3 days after first dose; for target concentration achievement rate (≥ 10 mg/L): TDM8-14d
Protocol: Teicoplanin (Targocid, Sanofi, Dublin, Ireland) was administered intravenously for 30 min. The prescribed dose regimens were at the discretion of treating physicians, and the recommended regimens were not always followed.
Blood samples (5 mL) were collected from the elbow into ethylenediaminetetraacetic acid-containing Vacutainers® (Becton Dickinson, Milan, Italy) in the morning before teicoplanin administration and after drug withdrawal. Samples were promptly refrigerated and centrifuged at 2500 × g for 10 min before 2 mL of supernatant was preserved at -20 °C for subsequent analysis. Teicoplanin concentrations were determined using liquid chromatography-tandem mass spectrometry. The linear range of the method was 1.0–100.0 mg/L, and the lower limit of quantification was 1.0 mg/L. The relative standard deviation of intra- and inter-batch precision was ≤ 10%.
Teicoplanin concentrations were dynamically monitored. Concentrations at 3, ≤ 7, 8–14, and ≥ 15 days after the first dose and within 2 h of the next scheduled dose were recorded as TDM3d, TDM≤7d, TDM8-14d, and TDM≥15d, respectively. Concentrations at 3, ≤ 7, 8–14, and ≥ 15 days after the last teicoplanin dose (withdrawal) were recorded as TDMw3d, TDMw≤7d, TDMw8-14d, and TDMw≥15d. respectively (Fig. 1a). The Cmin target was ≥ 10 mg/L [6, 7, 23]; a concentration < 10 mg/L was considered suboptimal. Average TDM (TDMa) was defined as the mean Cmin after 3 days of treatment.

[5] = LR-A + MR-A (200 mg once daily, then 200 mg once daily)
[6] = LR-B + MR-A (400 mg once daily, then 200 mg once daily)
[7] = LR-B + MR-B (400 mg once daily, then 400 mg once daily)
[8] = LR-C + MR-B (400 mg at 12-h intervals, then 400 mg once daily)
[9] = LR-C + MR-C (400 mg at 12-h intervals, then 400 mg twice daily)

patients with TDM 10–20 mg/L At 8-14d, N (%) ([4]; LR-A + MR-A): 20(41.7)
patients with TDM < 10 mg/L At 8-14d, N (%) ([4]; LR-A + MR-A): 22(45.8)
patients with TDM > 20 mg/L At 8-14d, N (%) ([4]; LR-A + MR-A): 6(12.5)
TDM At 8-14d (teicoplanin trough concentration) [4, 5]: 10.4[7.3,17.8] mg/L
patients with TDM 10–20 mg/L At 8-14d, N (%) ([4]; LR-B + MR-A): 25(53.2)
patients with TDM < 10 mg/L At 8-14d, N (%) ([4]; LR-B + MR-A): 16(34.0)
patients with TDM > 20 mg/L At 8-14d, N (%) ([4]; LR-B + MR-A): 6(12.8)
TDM At 8-14d (teicoplanin trough concentration) [4, 6]: 11.0[7.3,15.4] mg/L
patients with TDM 10–20 mg/L At 8-14d, N (%) ([4]; LR-B + MR-B): 2(50.0)
patients with TDM < 10 mg/L At 8-14d, N (%) ([4]; LR-B + MR-B): 1(25.0)
patients with TDM > 20 mg/L At 8-14d, N (%) ([4]; LR-B + MR-B): 1(25.0)
TDM At 8-14d (teicoplanin trough concentration) [4, 7]: 12.8[9.0,21.5] mg/L
patients with TDM 10–20 mg/L At 8-14d, N (%) ([4]; LR-C + MR-B): 8(57.2)
patients with TDM < 10 mg/L At 8-14d, N (%) ([4]; LR-C + MR-B): 5(35.7)
patients with TDM > 20 mg/L At 8-14d, N (%) ([4]; LR-C + MR-B): 1(7.1)
TDM At 8-14d (teicoplanin trough concentration) [4, 8]: 14.16[8.9,16.4] mg/L
patients with TDM 10–20 mg/L At 8-14d, N (%) ([4]; LR-C + MR-C): 3(37.5)
patients with TDM < 10 mg/L At 8-14d, N (%) ([4]; LR-C + MR-C): 0
patients with TDM > 20 mg/L At 8-14d, N (%) ([4]; LR-C + MR-C): 5(62.5)
TDM At 8-14d (teicoplanin trough concentration) [4, 9]: 21.2[16.8,27.4] mg/L
TDM At 8-14d (teicoplanin trough concentration) ([4]; all patients (N = 204), iv): 11.1[8.5,17.6] mg/L
patients with TDM 10–20 mg/L At 3d, N (%) ([4]; LR-A + MR-A): 0
patients with TDM < 10 mg/L At 3d, N (%) ([4]; LR-A + MR-A): 16(100)
patients with TDM > 20 mg/L At 3d, N (%) ([4]; LR-A + MR-A): 0
TDM At 3d (teicoplanin trough concentration) [4, 5]: 5.4[3.0,7.7] mg/L
patients with TDM 10–20 mg/L At 3d, N (%) ([4]; LR-B + MR-A): 2(10.5)
patients with TDM < 10 mg/L At 3d, N (%) ([4]; LR-B + MR-A): 17(89.5)
patients with TDM > 20 mg/L At 3d, N (%) ([4]; LR-B + MR-A): 0
TDM At 3d (teicoplanin trough concentration) [4, 6]: 6.3[4.4,7.9] mg/L
patients with TDM 10–20 mg/L At 3d, N (%) ([4]; LR-B + MR-B): 1(16.7)
patients with TDM < 10 mg/L At 3d, N (%) ([4]; LR-B + MR-B): 3(50.0)
patients with TDM > 20 mg/L At 3d, N (%) ([4]; LR-B + MR-B): 2(33.3)
TDM At 3d (teicoplanin trough concentration) [4, 7]: 11.1[8.1,22.2] mg/L
patients with TDM 10–20 mg/L At 3d, N (%) ([4]; LR-C + MR-B): 5(62.5)
patients with TDM < 10 mg/L At 3d, N (%) ([4]; LR-C + MR-B): 3(37.5)
patients with TDM > 20 mg/L At 3d, N (%) ([4]; LR-C + MR-B): 0
TDM At 3d (teicoplanin trough concentration) [4, 8]: 11.0[7.0,13.3] mg/L
patients with TDM 10–20 mg/L At 3d, N (%) ([4]; LR-C + MR-C): 7(50.0)
patients with TDM < 10 mg/L At 3d, N (%) ([4]; LR-C + MR-C): 3(21.4)
patients with TDM > 20 mg/L At 3d, N (%) ([4]; LR-C + MR-C): 4(28.6)
TDM At 3d (teicoplanin trough concentration) [4, 9]: 14.4[10.7,21.1] mg/L
TDM At 3d (teicoplanin trough concentration) ([4]; all patients (N = 204), iv): 7.7[5.6,12.4] mg/L
target concentration achievement rate (≥ 10 mg/L) ([4]; LR-A + MR-A regimen): 54.2%
target concentration achievement rate (≥ 10 mg/L) ([4]; LR-B + MR-A regimen): 66.0%
target concentration achievement rate (≥ 10 mg/L) ([4]; LR-B + MR-B regimen): 75.0%
Substance: Teicoplanin
incidence of thrombocytopenia ([1]; TDMa < 10 mg/L (16/49)): 32.7%
incidence of thrombocytopenia ([1]; TDMa = 10–20 mg/L (12/42)): 28.6%
incidence of thrombocytopenia ([1]; TDMa = 20–40 mg/L (7/20)): 35.0%
incidence of thrombocytopenia ([1]; all evaluable patients (35/111), platelet count decrease > 30% from baseline): 31.5%
incidence of acute kidney injury (AKI) / nephrotoxicity ([2]; TDMa < 10 mg/L (5/52)): 9.6%
incidence of acute kidney injury (AKI) / nephrotoxicity ([2]; TDMa = 10–20 mg/L (6/50)): 12.0%
incidence of acute kidney injury (AKI) / nephrotoxicity ([2]; TDMa = 20–40 mg/L (4/18)): 22.2%
incidence of acute kidney injury (AKI) / nephrotoxicity ([2]; all evaluable patients (15/120), serum creatinine increase > 50% from baseline): 12.5%
average elimination half-life ([3]; human): 107 h
half-life of teicoplanin ([3]; human): 71 to 80 h
half-life of teicoplanin [3]: 71 to 163 h
